{"source": "patent US20110214196A1", "about": "“DEVELOPMENT OF HERBICIDE-RESISTANT GRASS SPECIES” (University of Georgia Research Foundation, priority 2008, published 2011)", "system": "bermudagrass", "experiment": "Controlling weedy species in a plot of bermudagrass and sethoxydim-resistant seashore paspalum", "assay_type": "in vivo", "protocol": "(§1) A plot containing both bermudagrass and sethoxydim-resistant seashore paspalum is treated with 150 g a.i. ha^−1 sethoxydim once a week over a period of three months. Over the three month treatment period, it is observed that the bermudagrass slowly dies out while the sethoxydim-resistant paspalum continues to thrive, leaving the plot populated with above 80% sethoxydim-resistant paspalum.\nas §1, with “treated with both 150 g” for “treated with 150 g”, “ha^−1 sethoxydim and 150 g a.i. ha^−1 fenoxaprop once a” for “ha^−1 sethoxydim once a”", "data": [{"smiles": "CCC/C(=N\\OCC)C1=C(O)CC(CC(C)SCC)CC1=O", "note": "(centres unmarked) [sethoxydim, 2-[1-(ethoxyimino)-butyl]-5-[2-(ethylthio)propyl]-3-hydroxy-2-cylohexen-1-one]", "values": [{"measurement": "plot populated with sethoxydim-resistant paspalum; bermudagrass slowly dies out", "setting": "150 g a.i. ha^−1 sethoxydim and 150 g a.i. ha^−1 fenoxaprop once a week over three months", "result": "above 80%"}, {"measurement": "plot populated with sethoxydim-resistant paspalum; bermudagrass slowly dies out", "setting": "150 g a.i. ha^−1 sethoxydim once a week over three months", "result": "above 80%"}]}]}
